Laboratory results from US20150368248A1, “2-SUBSTITUTED-6-BIARYLMETHYLAMINO-9-CYCLOPENTYL-9H-PURINE DERIVATIVES, USE THEREOF AS MEDICAMENTS, AND PHARMACEUTICAL COMPOSITIONS” (UNIVERZITA PALACKEHO V OLOMOUCI, priority 2013, published 2015).
pIC50: −log10 of the molar value. Like-named read-outs stand apart in the source and are kept apart here. Each block holds one compound with its values, some of them ahead of it.

Assays:
[1] = tested on: caspase-3/7 activity in Hep3B cell line; assay: One-step cellular caspase-3/7 activity assay; type: cell-based, human; settings: 24 hours, 0 nM = 1.00
Method: (§1) Measurements of proapoptotic properties of new compounds were based on quantification of enzymatic activities of caspases, concretely caspases-3/7. Activity of cellular caspase-3/7 was measured according to Carrasco et al., 2003, BioTechniques, 34(5): 1064-67. Briefly, Hep3B and PLC/PRF/5 cells were incubated in the densities of 10000 cells/well in a 96-well plate overnight. Next day, the compounds in appropriate concentrations were added and cells were incubated for the 24 hours. After incubation, 3× caspase-3/7 assay buffer (150 mM HEPES pH 7.4, 450 mM NaCl, 150 mM KCl, 30 mM MgCl2, 1.2 mM EGTA, 1.5% Nonidet P40, 0.3% CHAPS, 30% sucrose, 30 mM DTT, 3 mM PMSF) with 150 μM Ac-DEVD-AMC as a substrate (Sigma-Aldrich) was added to the wells and plates were incubated at […]. The caspase-3/7 activity was measured after 6 hours using Fluoroskan Ascent microplate reader (Labsystems) at 346 nm/442 nm (excitation/emission).

[2] = tested on: caspase-3/7 activity in PLC/PRF/5 cell line; assay: One-step cellular caspase-3/7 activity assay; type: cell-based, human; settings: 24 hours incubation, relative to 0 nM = 1.00
Method: as §1

[3] = tested on: p53-regulated transcription in Arn8 cells; assay: p53-dependent transcriptional activity, β-galactosidase reporter; type: cell-based; settings: 24 h incubation
Method: Stronger anticancer activity of the compounds is enhanced by its positive impact on stability and activity of the tumour suppressor p53. To measure p53-dependent transcriptional activity, β-galactosidase activity was quantified in the melanoma cell line Arn8, which had been established using stable transfection of cells with a p53-responsive reporter construct pRGCAfoslacZ (Frebung et al., Cancer Res., 52, 1992-6976). Briefly, after 24 h incubation with the inhibitors the Arn8 cells were permeabilized with 0.3% Triton X-100 for 15 min and then 4-methylumbelliferon-β-D-galactopyranoside was added as a substrate to the final concentration of 80 μM. After 1 h the fluorescence of product 4-methylumbelliferon was measured at 355/460 nm (ex/em) with a Fluoroskan Ascent microplate reader (Labsystems). Data in Tab. 8 present that series of 2-substituted-6-biarylmethylamino-9-cyclopentyl-9H-purine derivatives show a dose-dependent activatory effect on p53-regulated transcription, with the maximum impact observed between 100 and 500 nM concentrations for most of prepared compounds (Tab. 8).

[4] = tested on: Hep3B; assay: MTT cytotoxicity assay (Example 30); type: cell-based, human; settings: MTT, three days after drug addition, read-out: Inhibitory concentration IC50, Hep3B
Method: (§2) Cytotoxicity of the compounds is the major property determining their anticancer effect in vivo. One of the parameters used, as the basis for cytotoxicity assays, is the metabolic activity of viable cells.
(§3) We have been using the following cell lines: HUH-7 and PLC/PRF/5 cell lines were maintained in DMEM supplemented with 10% fetal bovine serum, penicillin (100 U/ml) and streptomycin (100 μg/ml). […] HepG2 cell line was maintained in EMEM supplemented with 10% fetal bovine serum, sodium pyruvate (0.11 g/1), penicillin (100 U/ml) and streptomycin (100 μg/ml). All cell lines were cultivated at 37° C. in 5% CO2. For cytotoxicity assays, 3000 cells (10000 cells in case of HepG2 cell line) were seeded into each well of 96 well plate and the next day tested compounds were added at various concentrations in triplicates. Three days after drug addition MTT stock solution (5 mg/ml) was added into each well and incubated for 4 h. After this incubation period, produced formazan was dissolved by DMSO and final absorbance was measured at 570 nm with Synergy H4 Hybrid Multi-Mode Microplate Reader.

[5] = tested on: HCC-1.1 (3sp); assay: MTT cytotoxicity assay (Example 30); type: cell-based; settings: Homo sapiens, 72 h; MTT, three days after drug addition; read-out: Inhibitory concentration IC50, 3sp
Method: as §2, §3

[6] = tested on: HCC-1.2 (3p); assay: MTT cytotoxicity assay (Example 30); type: cell-based; settings: Homo sapiens, HCC-1.2, 72 h; MTT, three days after drug addition; read-out: Inhibitory concentration IC50, 3p
Method: as §2, §3

[7] = tested on: HUH-7; assay: MTT cytotoxicity assay (Example 30); type: cell-based; settings: Homo sapiens, Huh-7, 72 h; MTT, three days after drug addition; read-out: Inhibitory concentration IC50, HUH-7
Method: as §2, §3

[8] = tested on: PLC/PRF/5; assay: MTT cytotoxicity assay (Example 30); type: cell-based; settings: Homo sapiens, PLC-PRF-5, 72 h; MTT, three days after drug addition; read-out: Inhibitory concentration IC50, PLC/PRF/5
Method: as §2, §3

[9] = tested on: HepG2; assay: MTT cytotoxicity assay (Example 30); type: cell-based; settings: Homo sapiens, HepG2, 72 h; MTT, three days after drug addition; read-out: Inhibitory concentration IC50, HepG2
Text: Cytotoxicity of the compounds is the major property determining their anticancer effect in vivo. One of the parameters used, as the basis for cytotoxicity assays, is the metabolic activity of viable cells. For example, a microtiter assay, which uses (3-(4,5-Dimethylthiazol-2-yl)-2,5-diphenyltetrazolium bromide (MTT), is widely used to quantitate cell proliferation and cytotoxicity. For instance, this assay is used in drug screening programs and in chemosensitivity testing. Because only metabolically active living cells reduce MTT to correspond purple formazan dye, these assays detect viable cells exclusively. The quantity of reduced MTT corresponds to the number of vital cells in the culture.
We have been using the following cell lines: HUH-7 and PLC/PRF/5 cell lines were maintained in DMEM supplemented with 10% fetal bovine serum, penicillin (100 U/ml) and streptomycin (100 μg/ml). Unique HCC-1.2 (3p) and HCC-1.1 (3sp) cell lines (Zilj et al., 2009, Future Oncol, 5(8):1169-79) and Hep3B cells were cultivated in RPMI supplemented with 10% fetal bovine serum, penicillin (100 U/ml) and streptomycin (100 μg/ml). HepG2 cell line was maintained in EMEM supplemented with 10% fetal bovine serum, sodium pyruvate (0.11 g/1), penicillin (100 U/ml) and streptomycin (100 μg/ml). All cell lines were cultivated at 37° C. in 5% CO2. For cytotoxicity assays, 3000 cells (10000 cells in case of HepG2 cell line) were seeded into each well of 96 well plate and the next day tested compounds were added at various concentrations in triplicates. Three days after drug addition MTT stock solution (5 mg/ml) was added into each well and incubated for 4 h. After this incubation period, produced formazan was dissolved by DMSO and final absorbance was measured at 570 nm with Synergy H4 Hybrid Multi-Mode Microplate Reader.

[10] = tested on: human umbilical vein endothelial cells (HUVEC); assay: HUVEC proliferation, Calcein AM; type: cell-based; settings: read-out: Inhibitory concentration for HUVEC cells - IC50
Method: Novel 2-substituted-6-biarylmethylamino-9-cyclopentyl-9H-purine derivatives were tested for their potential anti-angiogenic properties; we analyzed its influence on the proliferation (Tab. 9), migration and tube formation of human umbilical vein endothelial cells (HUVEC). Confluent HUVECs were seeded in 96-well microtiter plates to detect their proliferation for 24 or 72 h using Calcein AM solution (Invitrogen) and a Fluoroskan Ascent microplate reader (Labsystems) as described previously (Krystof et al., 2011, Eur J Med Chem. 2011 September; 46(9):4289-94).

[11] = tested on: human umbilical vein endothelial cells (HUVECs); assay: Migration scratch assay; type: cell-based; parameters: key to Wound area: ++: open; +: partly open; 0: closed; settings: 24 h
Method: Migration assay was performed as described previously (Krystof et al., 2011, Eur J Med Chem.; 46(9):4289-94). Briefly, confluent HUVECs were scratched and immediately treated for 24 h with various doses of compounds. After incubation each well was photographed using a DP Controller system (Olympus) connected to a Olympus BX50 microscope. Migration was expressed as the proportion of pixels of the wound area in the image that were not covered by cells using “in house” software.

- melting point: 178 to 179 °C
SMILES: Clc1nc(NCc2ccc(Br)nc2)c2ncn(C3CCCC3)c2n1

- melting point: 165 to 167 °C
SMILES: Clc1nc(NCc2ccc(-n3cccn3)cc2)c2ncn(C3CCCC3)c2n1 [BP23, (2-chlor-9-cyclopentyl-9H-purine-6-yl)-(4-pyrazol-1-yl-benzyl)-amine]
- pIC50 ([4]; Homo sapiens, Hep3B, 72 h): 6.36
- pIC50 [5]: 6.33

- melting point: 111 to 114 °C
SMILES: Clc1nc(NCc2ccc(-c3cccs3)nc2)c2ncn(C3CCCC3)c2n1 [BP29, (2-chlor-9-cyclopentyl-9H-purine-6-yl)-(6-thiophen-2-yl-pyridin-3-ylmethyl)-amine]
- pIC50 ([4]; Homo sapiens, Hep3B, 72 h): 6.10
- pIC50 [5]: 6.07

- melting point: 152 to 154 °C
SMILES: Clc1nc(NCc2ccc(Br)cc2)c2ncn(C3CCCC3)c2n1 [BP101, (4-bromo-benzyl)-(2-chloro-9-cyclopentyl-9H-purine-6-yl)-amine]

- melting point: 108 to 110 °C
SMILES: CC(C)(O)CNc1nc(NCc2ccc(Br)cc2)c2ncn(C3CCCC3)c2n1 [BP114, 1-[6-(4-bromo-benzylamino)-9-cyclopentyl-9H-purine-2-ylamino]-2-methyl-propan-2-ol]

- melting point: 121 to 123 °C
SMILES: CC(C)(O)CNc1nc(NCc2ccc(-c3ccco3)cc2)c2ncn(C3CCCC3)c2n1 [BP115, 1-[9-Cyclopentyl-6-(4-furan-2-yl-benzylamino)-9H-purine-2-ylamino]-2-methyl-propan-2-ol]
- Relative caspase-3/7 activity in Hep3B cell line ([1]; 200 nM): 0.94
- Relative caspase-3/7 activity in Hep3B cell line ([1]; 400 nM): 1.05
- Relative caspase-3/7 activity in Hep3B cell line ([1]; 800 nM): 1.19
- Relative caspase-3/7 activity in Hep3B cell line ([1]; 1600 nM): 0.81
- Relative caspase-3/7 activity in PLC/PRF/5 cell line ([2]; compound concentration 160 nM): 1.17
- Relative caspase-3/7 activity in PLC/PRF/5 cell line ([2]; compound concentration 320 nM): 1.05
- Relative caspase-3/7 activity in PLC/PRF/5 cell line ([2]; compound concentration 640 nM): 0.88
- Relative caspase-3/7 activity in PLC/PRF/5 cell line ([2]; compound concentration 1280 nM): 0.98
- Concentration of maximum activation [3]: 870 nM

The next lines start with the compound.

SMILES: NC1CCC(Nc2nc(NCc3ccc(-c4ccccc4O)cc3)c3ncn(C4CCCC4)c3n2)CC1 (centres unmarked) [BP17, N^2-(4-amino-cyclohexyl)-9-cyclopentyl-N^6-(2′-hydroxy-biphenyl-4-ylmethyl)-9H-purine-2,6-diamine]
- Relative caspase-3/7 activity in Hep3B cell line ([1]; 200 nM): 0.89
- Relative caspase-3/7 activity in Hep3B cell line ([1]; 400 nM): 0.87
- Relative caspase-3/7 activity in Hep3B cell line ([1]; 800 nM): 0.96
- Relative caspase-3/7 activity in Hep3B cell line ([1]; 1600 nM): 0.63
- Relative caspase-3/7 activity in PLC/PRF/5 cell line ([2]; compound concentration 160 nM): 1.08
- Relative caspase-3/7 activity in PLC/PRF/5 cell line ([2]; compound concentration 320 nM): 1.09
- Relative caspase-3/7 activity in PLC/PRF/5 cell line ([2]; compound concentration 640 nM): 0.99
- Relative caspase-3/7 activity in PLC/PRF/5 cell line ([2]; compound concentration 1280 nM): 1.20
- Concentration of maximum activation [3]: 950 nM
- melting point: 168 to 170 °C

SMILES: NC1CCC(Nc2nc(NCc3ccc(Br)cc3)c3ncn(C4CCCC4)c3n2)CC1 (centres unmarked) [BP102, N^2-(4-amino-cyclohexyl)-N^6-(4-bromo-benzyl)-9-cyclopentyl-9H-purine-2,6-diamine]
- pIC50 ([4]; Homo sapiens, Hep3B, 72 h): 6.57
- pIC50 [5]: 6.36
- pIC50 [6]: 6.31
- pIC50 [7]: 6.41
- pIC50 [8]: 6.19
- pIC50 [9]: < 6.00

SMILES: Clc1nc(NCc2ccc(-c3ccco3)nc2)c2ncn(C3CCCC3)c2n1 [BP116, (2-chloro-9-cyclopentyl-9H-purine-6-yl)-(6-furan-2-yl-pyridin-3-ylmethyl)-amine]
- pIC50 ([4]; Homo sapiens, Hep3B, 72 h): 6.53
- pIC50 [5]: 6.43
- melting point: 119 to 122 °C

SMILES: Clc1nc(NCc2ccc(-c3ccco3)cc2)c2ncn(C3CCCC3)c2n1 [BP118, (2-chloro-9-cyclopentyl-9H-purine-6-yl)-(4-furan-2-yl-benzyl)-amine]
- melting point: 135 to 137 °C

SMILES: CCC(CO)Nc1nc(NCc2ccc(-c3ccccn3)cc2)c2ncn(C(C)C)c2n1 (centres unmarked) [CR8, reference compound]
- pIC50 [4]: < 5.70
- Concentration of maximum activation [3]: 1600 nM
- pIC50 ([10]; 24 h): < 4.30
- pIC50 ([10]; 72 h): 6.21
- Wound area ([11]; 100 nM): 0
- Wound area ([11]; 1000 nM): +

SMILES: Cn1cnc2c(NCc3ccccc3)nc(NCCO)nc21 [olomoucine, reference compound]
- Wound area ([11]; 100 nM): 0
- Wound area ([11]; 1000 nM): 0

SMILES: CC[C@H](CO)Nc1nc(NCc2ccccc2)c2ncn(C(C)C)c2n1 [roscovitine, reference compound]
- Concentration of maximum activation [3]: >10000 nM
- Wound area ([11]; 100 nM): 0
- Wound area ([11]; 1000 nM): 0
